Test results published in PubChem BioAssay AID1996.
In brackets after ≈: the same amount, converted by molar mass.

Conditions: buffer; pH 7.4; 200.0 µM

Which solubility kinetic does the source give for COc1ccc(Oc2nc(-c3cccnc3)nc3ccccc23)cc1 here?
The solubility kinetic was < 0.2 µg/mL.

With O=C(NC1CCNCC1)C1CCCCC1 as the molecule, how does the solubility kinetic read?
Its solubility kinetic is > 31.5 µg/mL.

Which solubility kinetic does the source give for Cc1ccc(Sc2ncccc2C(N)=O)cc1 here?
The solubility kinetic was > 36.6 µg/mL.

With N#C/C(=C\Nc1ccc(F)c(Cl)c1)S(=O)(=O)c1ccccn1 as the molecule, how does the solubility kinetic read?
The solubility kinetic was 42 µg/mL (≈ 124 µM).

With CC(=O)Nc1csc2ccccc12 as the molecule, how does the solubility kinetic read?
Its solubility kinetic is > 28.7 µg/mL.

With Nc1nc(COc2ccc(F)cc2)nc(N2CCCCC2)n1 as the molecule, how does the solubility kinetic read?
Its solubility kinetic is 1.9 µg/mL (≈ 6.26 µM).

Which solubility kinetic does the source give for O=C(NCc1ccc(F)cc1)c1ccncc1 here?
Its solubility kinetic is 34.2 µg/mL (≈ 149 µM).

Which solubility kinetic does the source give for CC(=O)NC(c1ccc2ccccc2c1)c1ccc2cccnc2c1O (stereo not given) here?
Its solubility kinetic is 1.2 µg/mL (≈ 3.5 µM).

Which solubility kinetic does the source give for CCc1ccccc1NC(=O)COC(=O)C1C2CC3OC(=O)C1C3C2 (stereo not given) here?
The solubility kinetic was 46.2 µg/mL (≈ 135 µM).

With CN1CCC2(CC1)N=C(c1ccc(F)cc1)C(=S)N2 as the molecule, how does the solubility kinetic read?
The solubility kinetic was 39.8 µg/mL (≈ 143 µM).

Which solubility kinetic does the source give for O=C(Nc1cccc(S(=O)(=O)NCc2ccco2)c1)c1ccc(Cl)cc1 here?
Its solubility kinetic is 3 µg/mL (≈ 7.68 µM).

Which solubility kinetic does the source give for Cn1c(=O)c2c(ncn2CC(=O)OCC(=O)Nc2ccc(F)cc2Cl)n(C)c1=O here?
Its solubility kinetic is > 63.6 µg/mL.

For O=C(NC1CC1)C1CCN(c2nc3ccccc3s2)CC1, which solubility kinetic is on record?
Its solubility kinetic is > 45.2 µg/mL.

With COc1ccc(OC)c(NC(=O)COC(=O)CCNc2ccccc2OC)c1 as the molecule, how does the solubility kinetic read?
The solubility kinetic was 40.8 µg/mL (≈ 105 µM).

With Cc1ccc(Cl)cc1NC(=O)C1CCCN(S(C)(=O)=O)C1 (stereo not given) as the molecule, how does the solubility kinetic read?
The solubility kinetic was 5.8 µg/mL (≈ 17.5 µM).

Which solubility kinetic does the source give for S=C(NC1CCCCC1)NC1CC2C=CC1C2 (stereo not given) here?
Its solubility kinetic is 19.5 µg/mL (≈ 77.9 µM).

For COc1cc2c(cc1OC)C(c1cccc([N+](=O)[O-])c1)=NCC2, which solubility kinetic is on record?
The solubility kinetic was > 46.8 µg/mL.

With C[N+]1(C)C2CCC1CC(OC(=O)c1ccco1)C2.[Br-] (stereo not given) as the molecule, how does the solubility kinetic read?
Its solubility kinetic is 48.5 µg/mL.

With CCOP(=O)(OCC)C(O)c1ccc(N(C)C)cc1 (stereo not given) as the molecule, how does the solubility kinetic read?
Its solubility kinetic is > 43.1 µg/mL.

Which solubility kinetic does the source give for COc1ccccc1C(=O)COC(=O)CN1C(=O)c2ccccc2C1=O here?
The solubility kinetic was 6.4 µg/mL (≈ 18.1 µM).

With O=C(NCc1cccnc1)C12CC3CC(CC(Cl)(C3)C1)C2 as the molecule, how does the solubility kinetic read?
The solubility kinetic was 43.2 µg/mL (≈ 142 µM).

Which solubility kinetic does the source give for O=C(CCCc1c[nH]c2ccccc12)NCc1cccs1 here?
The solubility kinetic was 41.1 µg/mL (≈ 138 µM).

With COc1ccc(NC(=O)c2cc3ccccc3[nH]2)cc1 as the molecule, how does the solubility kinetic read?
Its solubility kinetic is 1.5 µg/mL (≈ 5.63 µM).

For CN1CCN(CC(=O)c2ccccc2F)CC1.O=C(O)C(=O)O, which solubility kinetic is on record?
The solubility kinetic was 42.9 µg/mL.

Which solubility kinetic does the source give for CCn1c(C)cc(C)c(C#N)c1=O here?
Its solubility kinetic is > 26.4 µg/mL.

Which solubility kinetic does the source give for O=C1/C(=C/c2ccc([N+](=O)[O-])cc2)CCC1C1CCCC1 (stereo not given) here?
Its solubility kinetic is 1 µg/mL (≈ 3.5 µM).

Which solubility kinetic does the source give for Nc1c(C(=O)N2CCCCCC2)oc2ccccc12 here?
The solubility kinetic was > 38.7 µg/mL.

With CCOc1cc(S(=O)(=O)NCc2cccnc2)c(C)cc1C as the molecule, how does the solubility kinetic read?
Its solubility kinetic is > 48.1 µg/mL.

With CC(C)Cn1cnc2c1c(=O)n(C)c(=O)n2C as the molecule, how does the solubility kinetic read?
Its solubility kinetic is > 35.4 µg/mL.

With CC(=O)c1ccc(NC(=O)[C@@]2(CC(=O)O)CC(/C=C/c3ccccc3)=NO2)cc1 as the molecule, how does the solubility kinetic read?
Its solubility kinetic is > 58.9 µg/mL.

Which solubility kinetic does the source give for COc1cccc(C(=O)NCCCn2ccnc2)c1 here?
Its solubility kinetic is > 38.9 µg/mL.

For CC1C(=O)Nc2ccccc2N1C(=O)c1c(F)cccc1F (stereo not given), which solubility kinetic is on record?
Its solubility kinetic is > 45.3 µg/mL.

With O=C(Nc1ccc(Br)c(Br)c1)C1CCCO1 (stereo not given) as the molecule, how does the solubility kinetic read?
The solubility kinetic was 38.8 µg/mL (≈ 111 µM).

For Cc1ccccc1NS(=O)(=O)c1ccc2c(c1)oc(=O)n2C, which solubility kinetic is on record?
The solubility kinetic was 2.3 µg/mL (≈ 7.22 µM).

With COCC(C)N1C(=O)Cc2c1nc(N)c1c(N)nc(N3CCN(c4ccccc4F)CC3)c(C#N)c21 (stereo not given) as the molecule, how does the solubility kinetic read?
Its solubility kinetic is 1.7 µg/mL (≈ 3.47 µM).

Which solubility kinetic does the source give for COc1cccc(-c2nc(N3CCCC3)c3ccccc3n2)c1O here?
Its solubility kinetic is < 0.2 µg/mL.

For CCCN(CC(=O)Nc1ccccc1OC)C(=O)c1cc2ccccc2o1, which solubility kinetic is on record?
Its solubility kinetic is 25.5 µg/mL (≈ 69.6 µM).

For CN(C(=O)c1ccc2nc(N)sc2c1)c1ccccc1, which solubility kinetic is on record?
The solubility kinetic was 40.8 µg/mL (≈ 144 µM).

With Cc1ccc(OCC(=O)O/N=C(\N)c2ccccn2)cc1 as the molecule, how does the solubility kinetic read?
The solubility kinetic was > 42.8 µg/mL.

With CC(C)CC(NC(=O)C1CCCCC1)C(=O)NC(C)c1ccccc1 (stereo not given) as the molecule, how does the solubility kinetic read?
Its solubility kinetic is 24.4 µg/mL (≈ 70.8 µM).

For C=CCn1c(SCC(N)=O)nnc1-c1cnccn1, which solubility kinetic is on record?
The solubility kinetic was > 41.4 µg/mL.

With Cc1cc(C)cc(NC(=O)CCn2ccnc2)c1 as the molecule, how does the solubility kinetic read?
Its solubility kinetic is > 36.5 µg/mL.

For Cc1cc(C(=O)Nc2cccc3ccccc23)c(C)o1, which solubility kinetic is on record?
Its solubility kinetic is 4 µg/mL (≈ 15.1 µM).

With O=C(NCc1ccco1)c1ccccc1 as the molecule, how does the solubility kinetic read?
The solubility kinetic was > 30.2 µg/mL.

Which solubility kinetic does the source give for COc1ccc(C(=O)NCc2cc3ccccc3n2C)cc1 here?
The solubility kinetic was 3.7 µg/mL (≈ 12.6 µM).

Which solubility kinetic does the source give for Cc1ccc(S(=O)(=O)CC(=O)c2ccccc2[N+](=O)[O-])cc1 here?
The solubility kinetic was 42.8 µg/mL (≈ 134 µM).

For C#CCn1cc(Cl)cc(C(=O)Nc2ccccc2)c1=O, which solubility kinetic is on record?
The solubility kinetic was 2.1 µg/mL (≈ 7.32 µM).

For Cc1cc(Cl)ccc1NC(=O)Cn1cncn1, which solubility kinetic is on record?
The solubility kinetic was > 37.6 µg/mL.

For Cn1c(SCC#N)nc2ccccc2c1=O, which solubility kinetic is on record?
The solubility kinetic was 30.2 µg/mL (≈ 131 µM).

With CC1CCCC(C)N1C(=O)CSc1nccc(=O)[nH]1 (stereo not given) as the molecule, how does the solubility kinetic read?
The solubility kinetic was 29.3 µg/mL (≈ 104 µM).

With Cc1ccc(C(=O)NCCC(=O)N2CCOCC2)cc1 as the molecule, how does the solubility kinetic read?
The solubility kinetic was > 41.5 µg/mL.

Which solubility kinetic does the source give for COc1ccc2cc(C#N)c(N3CCOCC3)nc2c1 here?
The solubility kinetic was 4.2 µg/mL (≈ 15.6 µM).

Which solubility kinetic does the source give for O=C(NCc1cccnc1)Nc1cc(Cl)cc(Cl)c1 here?
Its solubility kinetic is 15.2 µg/mL (≈ 51.3 µM).

Which solubility kinetic does the source give for O=C1c2ccccc2CN1Cc1ccccc1 here?
The solubility kinetic was > 33.5 µg/mL.

For CCN(C(=O)COc1ccc(N(C)S(=O)(=O)c2ccc(NC(C)=O)cc2)cc1)C1CCCCC1, which solubility kinetic is on record?
Its solubility kinetic is 18.9 µg/mL (≈ 38.8 µM).

With CN(CC#CC(O)(c1ccccc1)c1ccccc1)C(C)(C)C as the molecule, how does the solubility kinetic read?
The solubility kinetic was > 46.1 µg/mL.

For COc1ccc(C(=O)NC2CCCCCC2)cc1S(=O)(=O)N1CCCC1, which solubility kinetic is on record?
Its solubility kinetic is 6 µg/mL (≈ 15.8 µM).

Which solubility kinetic does the source give for O=C(NNC(=O)c1cc([N+](=O)[O-])ccc1Cl)c1cccnc1 here?
The solubility kinetic was > 48.1 µg/mL.

Which solubility kinetic does the source give for CCOc1ccc(C(=O)OC2CCCN(C)C2)cc1.Cl (stereo not given) here?
The solubility kinetic was > 45 µg/mL.

For COc1c(F)c(F)cc2c(=O)c(C(=O)O)cn(C3CC3)c12, which solubility kinetic is on record?
The solubility kinetic was > 44.3 µg/mL.
